Data: ChEMBL document CHEMBL5661943, “ASAP - In vitro antiviral effect” (2024)

Legend:
Zika virus = experiment: Functional CPE-based assay to measure dose dependent changes in antiviral-drug inhibitory efficacy against Zika virus MR766 in Vero E6 miRFP670 cells (cotreated with P-gp inhibitor, CP100356). Cells are treated with antiviral candidates that are serially diluted. EC50 is reported via analysis of MTS assay as a readout of CPE. The assay has been performed by KU Leuven.; type: organism-based, Chlorocebus sabaeus, Vero C1008; conditions: Zika virus
dengue virus type 2 = experiment: Functional assay to measure dose dependent changes in antiviral-drug inhibitory efficacy against Dengue virus type 2 New Guinea C in Vero E6 miRFP670 cells (cotreated with P-gp inhibitor, CP100356). Cells are treated with antiviral candidates that are serially diluted, following infection, cells are fixed. EC50 is reported via analysis of fluorescence intensity using high-content imager. The …; type: organism-based, Chlorocebus sabaeus, Vero C1008; conditions: for EC90: P-gp concentration 500 nM, P-gp inhibitor CP100356

With CC1=C(c2cc(NC(=O)c3cc(Cl)cc4[nH]ncc34)cc3c2CNC3)CCC1=O the EC50 (Zika virus; Vero C1008) was > 50 µM, the EC90 (Zika virus; Vero C1008, Baseline response 0 %, Hill slope 0.456, Maximum measured 3.948 %, Maximum response 100 %, Minimum measured -0.924 %, P-gp concentration 500 nM, R squared 0.076, P-gp inhibitor CP100356) was > 50 µM and the EC50 (dengue virus type 2; Dengue virus, Vero C1008) was > 50 µM. The EC90 (dengue virus type 2; Dengue virus, Vero C1008, Maximum measured 165.308 %, Minimum measured 53.221 %) was > 50 µM.

In the case of O=C(Nc1ccc2c(c1)CNC2)c1cc(Cl)cc2cn[nH]c12, the EC50 (Zika virus; Vero C1008) is reported as 3.01 µM, the EC90 (Zika virus; Vero C1008, Baseline response 0 %, EC90 CI (lower) 2.341 uM, EC90 CI (upper) 14.506 uM, Hill slope 3.321, Maximum measured 138.559 %, Maximum response 100 %, Minimum measured 2.928 %, P-gp concentration 500 nM, R squared 0.845, P-gp inhibitor CP100356) is reported as 5.83 µM and the EC50 (dengue virus type 2; Dengue virus, Vero C1008) is reported as > 50 µM. The EC90 (dengue virus type 2; Dengue virus, Vero C1008, Maximum measured 130.797 %, Minimum measured 96.2 %) was > 50 µM.

For O=C(Nc1ccc2c(c1)CNC2)c1ccc2c(C3=CCNCC3)csc2c1, the EC50 (Zika virus; Vero C1008) was 9.31 µM, the EC90 (Zika virus; Vero C1008, Baseline response 0 %, Hill slope 1.989, Maximum measured 64.405 %, Maximum response 100 %, Minimum measured 3.372 %, P-gp concentration 500 nM, R squared 0.951, P-gp inhibitor CP100356) was > 12.5 µM and the EC50 (dengue virus type 2; Dengue virus, Vero C1008) was 1.33 µM. The EC90 (dengue virus type 2; Dengue virus, Vero C1008, Baseline response 0 %, Hill slope -1.321, Maximum measured 86.909 %, Maximum response 100 %, Minimum measured 20.548 %, R squared 0.914) was > 6.25 µM.

In the case of CC(C)n1cc2c(C(=O)Nc3ccc4c(c3)CNC4)cc(Cl)cc2n1, the EC50 (Zika virus; Vero C1008) is reported as 1.67 µM, the EC90 (Zika virus; Vero C1008) is reported as 1.93 µM and the EC50 (dengue virus type 2; Dengue virus, Vero C1008) is reported as > 12.5 µM. For the same molecule, the EC90 (dengue virus type 2; Dengue virus, Vero C1008, Maximum measured 192.332 %, Minimum measured 77.026 %) was > 12.5 µM.

With O=C(Nc1ccc2c(c1)CNC2)c1cc(F)cc2[nH]c(-c3ccc(F)cc3)nc12 the EC50 (Zika virus; Vero C1008) was > 50 µM, the EC90 (Zika virus; Vero C1008, Baseline response 0 %, Hill slope 2.324, Maximum measured 27.659 %, Maximum response 100 %, Minimum measured -7.999 %, P-gp concentration 500 nM, R squared 0.219, P-gp inhibitor CP100356) was > 50 µM and the EC50 (dengue virus type 2; Dengue virus, Vero C1008) was > 50 µM. The EC90 (dengue virus type 2; Dengue virus, Vero C1008, Maximum measured 176.058 %, Minimum measured 96.502 %) was > 50 µM.

With O=C(Nc1ccc2c(c1)CNC2)c1cc(F)cc2[nH]c(-c3ccccc3)nc12 the EC50 (Zika virus; Vero C1008) was 2.13 µM, the EC90 (Zika virus; Vero C1008, Baseline response 0 %, Hill slope 1.327, Maximum measured 69.085 %, Maximum response 100 %, Minimum measured 18.26 %, P-gp concentration 500 nM, R squared 0.744, P-gp inhibitor CP100356) was > 3.12 µM and the EC90 (dengue virus type 2; Dengue virus, Vero C1008, Maximum measured 101.649 %, Minimum measured 101.649 %) was > 0.391 µM. For the same molecule, the EC90 (dengue virus type 2; Dengue virus, Vero C1008, Maximum measured 246.46 %, Minimum measured 208.361 %) was > 6.25 µM and the EC50 (dengue virus type 2; vero c1008) was > 6.25 µM.

With Cn1c(=O)[nH]c2c(C(=O)Nc3ccc4c(c3)CNC4)cc(Br)cc21 the EC50 (Zika virus; Vero C1008) was 0.724 µM, the EC90 (Zika virus; Vero C1008, Baseline response 0 %, EC90 CI (lower) 0.762 uM, EC90 CI (upper) 6.925 uM, Hill slope 1.902, Maximum measured 109.696 %, Maximum response 100 %, Minimum measured 27.933 %, P-gp concentration 500 nM, R squared 0.521, P-gp inhibitor CP100356) was 2.3 µM and the EC50 (dengue virus type 2; Dengue virus, Vero C1008) was > 50 µM. The EC90 (dengue virus type 2; Dengue virus, Vero C1008, Baseline response 0 %, Hill slope -2.293, Maximum measured 105.522 %, Maximum response 100 %, Minimum measured 55.095 %, R squared 0.397) was > 50 µM.

For O=C(NCCCn1ccnc1)[C@H](Nc1ccc2c(c1)CNC2)c1cc(Cl)cc(C2CC2)c1, the EC50 (Zika virus; Vero C1008) was > 50 µM, the EC90 (Zika virus; Vero C1008, Maximum measured 4.008 %, Minimum measured -17.269 %, P-gp concentration 500 nM, P-gp inhibitor CP100356) was > 50 µM and the EC50 (dengue virus type 2; Dengue virus, Vero C1008) was > 50 µM. For the same molecule, the EC90 (dengue virus type 2; Dengue virus, Vero C1008, Baseline response 0 %, Hill slope 0.691, Maximum measured 120.843 %, Maximum response 100 %, Minimum measured 86.475 %, R squared 0.179) was > 50 µM.

In the case of COc1cccc(-c2nc3c(C(=O)Nc4ccc5c(c4)CNC5)cc(F)cc3[nH]2)c1, the EC50 (Zika virus; Vero C1008) is reported as > 50 µM, the EC90 (Zika virus; Vero C1008, Baseline response 0 %, Hill slope -1.02, Maximum measured 11.362 %, Maximum response 100 %, Minimum measured -3.329 %, P-gp concentration 500 nM, R squared 0.203, P-gp inhibitor CP100356) is reported as > 50 µM and the EC50 (dengue virus type 2; Dengue virus, Vero C1008) is reported as > 50 µM. The EC90 (dengue virus type 2; Dengue virus, Vero C1008, Maximum measured 205.039 %, Minimum measured 143.371 %) was > 50 µM.

With O=C(Nc1ccc2c(c1)CN[C@H]2CCO)c1cc(F)cc2[nH]ncc12 the EC50 (Zika virus; Vero C1008) was > 50 µM, the EC90 (Zika virus; Vero C1008, Baseline response 0 %, Hill slope 1.133, Maximum measured 29.989 %, Maximum response 100 %, Minimum measured 0.147 %, P-gp concentration 500 nM, R squared 0.888, P-gp inhibitor CP100356) was > 50 µM and the EC50 (dengue virus type 2; Dengue virus, Vero C1008) was > 50 µM. The EC90 (dengue virus type 2; Dengue virus, Vero C1008, Baseline response 0 %, Hill slope 0.366, Maximum measured 128.215 %, Maximum response 100 %, Minimum measured 81.639 %, R squared 0.156) was > 50 µM.

For Cc1ncc(-c2cc(F)cc(C(=O)Nc3ccc4c(c3)CNC4)c2)s1, the EC50 (Zika virus; Vero C1008) was 3.77 µM, the EC90 (Zika virus; Vero C1008, Baseline response 0 %, EC90 CI (lower) 3.392 uM, EC90 CI (upper) 11.052 uM, Hill slope 4.52, Maximum measured 126.226 %, Maximum response 100 %, Minimum measured 6.868 %, P-gp concentration 500 nM, R squared 0.912, P-gp inhibitor CP100356) was 6.12 µM and the EC50 (dengue virus type 2; Dengue virus, Vero C1008) was > 25 µM. For the same molecule, the EC90 (dengue virus type 2; Dengue virus, Vero C1008, Maximum measured 125.186 %, Minimum measured 53.808 %) was > 25 µM.

In the case of C=CC[C@H]1NCc2cc(NC(=O)c3cc(F)cc4c3CC(=O)N4)ccc21, the EC50 (Zika virus; Vero C1008) is reported as 8.05 µM, the EC90 (Zika virus; Vero C1008) is reported as 19.4 µM and the EC50 (dengue virus type 2; Dengue virus, Vero C1008) is reported as > 50 µM. The EC90 (dengue virus type 2; Dengue virus, Vero C1008, Baseline response 0 %, Hill slope 1.022, Maximum measured 178.628 %, Maximum response 100 %, Minimum measured 80.7 %, R squared 0.039) was > 50 µM.

In the case of O=C(Nc1cc2c(cc1Br)CNC2)c1cc(F)cc2[nH]ncc12, the EC50 (Zika virus; Vero C1008) is reported as 0.721 µM, the EC90 (Zika virus; Vero C1008, Baseline response 0 %, EC90 CI (lower) 0.74 uM, EC90 CI (upper) 4.973 uM, Hill slope 2.246, Maximum measured 124.778 %, Maximum response 100 %, Minimum measured 29.701 %, P-gp concentration 500 nM, R squared 0.756, P-gp inhibitor CP100356) is reported as 1.92 µM and the EC50 (dengue virus type 2; Dengue virus, Vero C1008) is reported as > 25 µM. For the same molecule, the EC90 (dengue virus type 2; Dengue virus, Vero C1008, Baseline response 0 %, Hill slope -2.027, Maximum measured 102.892 %, Maximum response 100 %, Minimum measured 55.622 %, R squared 0.83) was > 25 µM.

CC(C)CNC(=O)[C@H](Nc1ccc2c(c1)CNC2)c1cc(Cl)cc2[nH]ncc12 was tested, and the EC50 (Zika virus; Vero C1008) was 14.2 µM, the EC90 (Zika virus; Vero C1008, Baseline response 0 %, EC90 CI (lower) 23.751 uM, EC90 CI (upper) 85.548 uM, Hill slope 1.9, Maximum measured 81.211 %, Maximum response 100 %, Minimum measured -3.072 %, P-gp concentration 500 nM, R squared 0.886, P-gp inhibitor CP100356) was 45.1 µM and the EC50 (dengue virus type 2; Dengue virus, Vero C1008) was > 50 µM. For the same molecule, the EC90 (dengue virus type 2; Dengue virus, Vero C1008, Maximum measured 133.558 %, Minimum measured 96.187 %) was > 50 µM.

With Cn1cc2c(C(=O)Nc3ccc4c(c3)CNC4)cc(F)cc2n1 the EC50 (Zika virus; Vero C1008) was 3.02 µM, the EC90 (Zika virus; Vero C1008, Baseline response 0 %, EC90 CI (lower) 4.41 uM, EC90 CI (upper) 19.306 uM, Hill slope 1.966, Maximum measured 124.261 %, Maximum response 100 %, Minimum measured 18.013 %, P-gp concentration 500 nM, R squared 0.888, P-gp inhibitor CP100356) was 9.23 µM and the EC50 (dengue virus type 2; Dengue virus, Vero C1008) was > 50 µM. The EC90 (dengue virus type 2; Dengue virus, Vero C1008, Baseline response 0 %, Hill slope 0.83, Maximum measured 109.464 %, Maximum response 100 %, Minimum measured 93.167 %, R squared 0.272) was > 50 µM.

O=C(Nc1ccc2c(c1)CNC2)c1cc(Cl)cc2c1cnn2C[C@H]1CCCO1 was tested, and the EC50 (Zika virus; Vero C1008) was 6.36 µM, the EC90 (Zika virus; Vero C1008, Baseline response 0 %, Hill slope 36.566, Maximum measured 122.907 %, Maximum response 100 %, Minimum measured 2.24 %, P-gp concentration 500 nM, R squared 0.938, P-gp inhibitor CP100356) was 6.75 µM and the EC50 (dengue virus type 2; Dengue virus, Vero C1008) was > 50 µM. The EC90 (dengue virus type 2; Dengue virus, Vero C1008, Baseline response 0 %, Hill slope 0.931, Maximum measured 200.765 %, Maximum response 100 %, Minimum measured 63.333 %, R squared 0.208) was > 50 µM.

With O=C(Nc1ccc2c(c1)CNC2)c1cc(F)cc(-c2cnc(C3CC3)s2)c1 the EC50 (Zika virus; Vero C1008) was 5.37 µM, the EC90 (Zika virus; Vero C1008, Baseline response 0 %, Hill slope 4.772, Maximum measured 67.326 %, Maximum response 100 %, Minimum measured 1.512 %, P-gp concentration 500 nM, R squared 0.988, P-gp inhibitor CP100356) was > 6.25 µM and the EC50 (dengue virus type 2; Dengue virus, Vero C1008) was 11.6 µM. For the same molecule, the EC90 (dengue virus type 2; Dengue virus, Vero C1008, Baseline response 0 %, Hill slope -1.802, Maximum measured 130.062 %, Maximum response 100 %, Minimum measured 44.88 %, R squared 0.382) was > 12.5 µM.

With NCc1csc2cc(C(=O)Nc3ccc4c(c3)CNC4)ccc12 the EC50 (Zika virus; Vero C1008) was > 50 µM, the EC90 (Zika virus; Vero C1008, Baseline response 0 %, Hill slope 0.999, Maximum measured 5.799 %, Maximum response 100 %, Minimum measured -1.302 %, P-gp concentration 500 nM, R squared 0.306, P-gp inhibitor CP100356) was > 50 µM and the EC50 (dengue virus type 2; Dengue virus, Vero C1008) was > 50 µM. For the same molecule, the EC90 (dengue virus type 2; Dengue virus, Vero C1008, Maximum measured 124.572 %, Minimum measured 93.265 %) was > 50 µM.

O=C(NCC(F)F)[C@H](Nc1cc2c(cc1Br)CNC2)c1cc(Cl)cc(C2CC2)c1 was tested, and the EC50 (Zika virus; Vero C1008) was 0.807 µM, the EC90 (Zika virus; Vero C1008, Baseline response 0 %, Hill slope 18.882, Maximum measured 131.702 %, Maximum response 100 %, Minimum measured 12.911 %, P-gp concentration 500 nM, R squared 0.859, P-gp inhibitor CP100356) was 0.907 µM and the EC50 (dengue virus type 2; Dengue virus, Vero C1008) was > 50 µM. For the same molecule, the EC90 (dengue virus type 2; Dengue virus, Vero C1008, Maximum measured 177.59 %, Minimum measured 74.788 %) was > 50 µM.
